According to article PMC7450057, “Enhancing intracellular accumulation and target engagement of PROTACs with reversible covalent chemistry” (Nature Communications, 2020):
Values joined by “and” are separate entries in the source; they are usually repeats but may differ in a detail not shown here. Identical values can stand only once.

Assays:
full-length BTK protein = target: T1, full-length BTK protein (Homo sapiens, UniProt Q06187); experiment: BTK binding assay (Kd, Eurofins DiscoverX); settings: for Kd: full-length BTK, duplicates
T1 construct: Kd was measured using the full-length BTK protein by Eurofins DiscoverX; T7 phage fusion or DNA tag for qPCR (generic vendor protocol); purchased Eurofins DiscoverX
T1 sequence (Q06187 whole entry, the tested form may be a part): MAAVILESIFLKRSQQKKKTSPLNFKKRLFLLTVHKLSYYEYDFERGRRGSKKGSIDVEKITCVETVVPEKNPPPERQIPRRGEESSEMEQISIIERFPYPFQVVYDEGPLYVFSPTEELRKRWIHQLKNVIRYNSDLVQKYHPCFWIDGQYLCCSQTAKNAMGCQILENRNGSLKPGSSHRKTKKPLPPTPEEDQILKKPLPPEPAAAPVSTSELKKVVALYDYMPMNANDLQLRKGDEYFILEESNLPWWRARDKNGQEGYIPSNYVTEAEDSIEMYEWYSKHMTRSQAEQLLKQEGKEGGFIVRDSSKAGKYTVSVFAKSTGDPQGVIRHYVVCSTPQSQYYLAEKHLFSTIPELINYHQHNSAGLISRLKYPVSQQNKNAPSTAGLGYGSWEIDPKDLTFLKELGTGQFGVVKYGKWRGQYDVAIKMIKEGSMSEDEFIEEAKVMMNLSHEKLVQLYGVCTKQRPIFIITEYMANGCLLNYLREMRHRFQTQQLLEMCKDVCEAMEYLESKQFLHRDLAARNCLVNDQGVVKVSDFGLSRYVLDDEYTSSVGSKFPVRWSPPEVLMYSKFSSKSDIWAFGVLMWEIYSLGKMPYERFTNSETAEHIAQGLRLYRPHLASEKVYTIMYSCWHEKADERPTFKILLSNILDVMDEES
Protocol: The dissociation equilibrium constant Kd was measured using the full-length BTK protein by Eurofins DiscoverX according to the following protocol: kinase-tagged T7 phage strains were prepared in an E. coli host derived from the BL21 strain. E. coli were grown to log-phase and infected with T7 phage and incubated with shaking at 32 °C until lysis. The lysates were centrifuged and filtered to remove cell debris. The remaining kinases were produced in HEK-293 cells and subsequently tagged with DNA for qPCR detection. […] The liganded beads were blocked with excess biotin and washed with blocking buffer (SeaBlock (Pierce), 1% BSA, 0.05% Tween 20, 1 mM DTT) to remove unbound ligand and to reduce non-specific binding. […] Test compounds were prepared as 111X stocks in 100% DMSO. […] The compounds were then diluted directly into the assays such that the final concentration of DMSO was 0.9%. All reactions performed in polypropylene 384-well plate. Each was a final volume of 0.02 mL. […] The kinase concentration in the eluates was measured by qPCR. For kinase-binding constant determination, an 11-point 3-fold serial dilution of each test compound was prepared in 100% DMSO at 100x final test concentration and subsequently diluted to 1x in the assay (final DMSO concentration = 1%). […] Binding constants (Kd values) were calculated with a standard dose-response curve using the Hill equation: Response=Background+Signal−Background/1+KdHillSlope/Dose^HillSlope
The Hill Slope was set to −1. Curves were fitted using a non-linear least square fit with the Levenberg-Marquardt algorithm.

NanoLuc-CRBN fusion = target: T2, NanoLuc-CRBN fusion (Homo sapiens, UniProt Q96SW2); experiment: NanoBRET CRBN in-cell target engagement assay; format: cell-based; settings: for NanoBRET(%): Figure 3b
T2 construct: host or cells: HEK 293T/17
T2 sequence (Q96SW2 whole entry, the tested form may be a part): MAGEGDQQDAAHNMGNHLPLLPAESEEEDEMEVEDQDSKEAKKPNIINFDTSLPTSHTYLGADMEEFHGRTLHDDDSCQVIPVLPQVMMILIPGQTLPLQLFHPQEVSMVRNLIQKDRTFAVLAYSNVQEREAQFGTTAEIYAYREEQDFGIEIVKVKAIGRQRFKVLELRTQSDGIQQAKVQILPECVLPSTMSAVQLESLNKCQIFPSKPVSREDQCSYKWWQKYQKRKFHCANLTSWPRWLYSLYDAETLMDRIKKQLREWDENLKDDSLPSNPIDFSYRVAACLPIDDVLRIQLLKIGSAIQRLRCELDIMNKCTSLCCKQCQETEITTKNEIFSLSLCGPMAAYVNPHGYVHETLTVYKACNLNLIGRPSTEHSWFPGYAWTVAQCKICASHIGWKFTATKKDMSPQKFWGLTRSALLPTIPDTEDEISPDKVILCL
T2 sequence (Q16531 whole entry partner, the tested form may be a part): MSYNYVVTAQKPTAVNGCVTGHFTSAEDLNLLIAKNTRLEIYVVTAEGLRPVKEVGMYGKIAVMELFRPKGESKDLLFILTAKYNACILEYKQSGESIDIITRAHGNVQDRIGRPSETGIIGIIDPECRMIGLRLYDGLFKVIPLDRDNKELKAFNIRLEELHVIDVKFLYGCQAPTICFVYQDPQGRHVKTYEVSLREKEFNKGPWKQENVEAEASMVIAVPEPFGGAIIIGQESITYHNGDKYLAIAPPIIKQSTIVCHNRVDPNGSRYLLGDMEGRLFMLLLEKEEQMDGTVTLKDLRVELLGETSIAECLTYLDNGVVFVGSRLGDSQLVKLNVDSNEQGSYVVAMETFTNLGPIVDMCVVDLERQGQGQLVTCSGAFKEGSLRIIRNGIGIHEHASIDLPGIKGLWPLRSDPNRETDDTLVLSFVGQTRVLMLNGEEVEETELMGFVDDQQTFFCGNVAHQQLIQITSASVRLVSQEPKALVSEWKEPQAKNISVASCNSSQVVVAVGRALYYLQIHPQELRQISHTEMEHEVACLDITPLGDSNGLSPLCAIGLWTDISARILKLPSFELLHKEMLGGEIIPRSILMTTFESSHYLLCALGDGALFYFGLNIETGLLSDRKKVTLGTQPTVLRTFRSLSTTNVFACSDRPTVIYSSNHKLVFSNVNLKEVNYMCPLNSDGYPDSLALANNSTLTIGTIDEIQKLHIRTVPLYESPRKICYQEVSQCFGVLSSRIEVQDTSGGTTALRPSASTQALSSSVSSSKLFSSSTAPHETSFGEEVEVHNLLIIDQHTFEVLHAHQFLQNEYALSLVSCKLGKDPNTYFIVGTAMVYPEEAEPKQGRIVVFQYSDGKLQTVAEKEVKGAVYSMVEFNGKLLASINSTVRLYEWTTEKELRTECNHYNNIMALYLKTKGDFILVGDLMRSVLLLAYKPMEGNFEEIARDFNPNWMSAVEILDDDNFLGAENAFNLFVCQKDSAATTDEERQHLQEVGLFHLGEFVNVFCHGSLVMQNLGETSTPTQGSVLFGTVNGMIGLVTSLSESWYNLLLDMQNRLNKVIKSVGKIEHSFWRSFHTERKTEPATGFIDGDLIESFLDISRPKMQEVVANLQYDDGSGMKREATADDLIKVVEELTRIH
Protocol: The target engagement assay for BTK or CRBN was from Promega (BTK kit, Cat. No. N2500; CRBN kit, Cat. No. CS1810C136) and was performed according to the manufacture’s instruction with some modifications. […] After 2 h incubation, the 3X Nano-Glo® Substrate with NanoLuc® extracellular inhibitor were added to cells and developed for 3 min at room temperature. BRET signals were collected using a BioTek SYNERGY H1 microplate reader equipped with a 450/80-nm BP filter for donor emission and a 610-nm LP filter for acceptor emission. BRET Ratio was calculated with the equation: [(Acceptor sample/Donor sample)–(Acceptor no tracer control/Donor no tracer control)] × 1000. The IC50 of the compound against its BTK or CRBN tracer was calculated using GraphPad Prism software.

[1] = Permeability by lipid-PAMPA method (Pharmaron); format: in vitro ADME; settings: PAMPA
Protocol: The permeability of compounds was measured using Lipid-PAMPA method by Pharmaron. Preparation of stock solutions: testosterone and methotrexate were used as control compounds in this assay. The stock solutions of positive controls were prepared in DMSO or acetonitrile at the concentration of 10 mM. Prepare a stock solution of compounds in DMSO at the concentration of 10 mM, and further dilute with PBS (pH 7.4). […]
Assay procedures: prepare a 1.8% solution (w/v) of lecithin in dodecane, and sonicate the mixture to ensure a complete dissolution. Carefully pipette 5 μL of the lecithin/dodecane mixture into each acceptor plate well (top compartment), avoiding pipette tip contact with the membrane. Immediately after the application of the artificial membrane (within 10 min), add 300 μL of PBS (pH 7.4) solution to each well of the acceptor plate. Add 300 μL of drug-containing solutions to each well of the donor plate (bottom compartment) in triplicate. Slowly and carefully place the acceptor plate into the donor plate, making sure the underside of the membrane is in contact with the drug-containing solutions in all wells. Replace the plate lid and incubate at 25 °C, 60 rpm for 16 h. After incubation, aliquots of 50 μL from each well of acceptor and donor plate are transferred into a 96-well plate. Add 450 μL of methanol (containing IS: 100 nM Alprazolam, 200 nM Caffeine, 100 nM Tolbutamide) into each well. Cover with plate lid. Vortex at 750 rpm for 100 s. Samples were centrifuged at 3220 × g for 20 min. Determine the compound concentrations by LC/MS/MS. The effective permeability (Pe), in units of centimeter per second, can be calculated using the following equation: LogPe=LogC×−Ln1−drugacceptor/drugequilibrium

BTK = BTK (Homo sapiens, UniProt Q06187); experiment: BTK degradation in MOLM-14 cells (western blot); format: cell-based; design: endogenous in cells; host or cells: MOLM-14; settings: for BTK degradation (in words): MOLM-14 cells, 24 h (Fig. 2d)
Sequence of BTK (Q06187 whole entry): as the sequence (Q06187 whole entry, the tested form may be a part) above

Rec-1 = experiment: IC50 in MCL cell lines (Supplementary Table 2), Rec-1; settings: for IC50: Rec-1, triplicates; for Cell Viability (%): Rec-1 cells, replicate wells
[2] = BTK_-DTT, compound concentration 0.137 nM

CN(CCCNC(=O)CNc1cccc2c1C(=O)N(C1CCC(=O)NC1=O)C2=O)CCCC(=O)N1CCCC(n2nc(-c3ccc(Oc4ccccc4)cc3)c3c(N)ncnc32)C1 (stereo not shown) [RNC-1]
Signal (full-length BTK protein; BTK_+DTT, compound concentration 0.0457 nM): 1.67E-05 and 2.04E-05
Signal (full-length BTK protein; BTK_+DTT, compound concentration 0.137 nM): 2.07E-05
Signal (full-length BTK protein; BTK_+DTT, compound concentration 0.412 nM): 1.78E-05 and 1.97E-05
Signal (full-length BTK protein; BTK_+DTT, compound concentration 1.23 nM): 1.66E-05 and 1.94E-05
Signal (full-length BTK protein; BTK_+DTT, compound concentration 3.7 nM): 9.43E-06 and 1.17E-05
Signal (full-length BTK protein; BTK_+DTT, compound concentration 11.1 nM): 5.40E-06 and 5.82E-06
Signal (full-length BTK protein; BTK_+DTT, compound concentration 33.3 nM): 1.59E-06 and 1.81E-06
Signal (full-length BTK protein; BTK_+DTT, compound concentration 100 nM): 4.37E-07 and 5.02E-07
Signal (full-length BTK protein; BTK_+DTT, compound concentration 300 nM): 2.01E-07 and 2.30E-07
Signal (full-length BTK protein; BTK_+DTT, compound concentration 900 nM): 1.47E-07 and 2.72E-07
Signal (full-length BTK protein; BTK_+DTT, compound concentration 2700 nM): 1.45E-07 and 2.02E-07
Signal (full-length BTK protein; [2]): 2.06E-05
Kd (full-length BTK protein; standard assay buffer in the presence of DTT (6 mM) (DiMe compounds: BTK_+DTT per Supplementary Data 1)): 4.7 nM
NanoBRET(%) (NanoLuc-CRBN fusion; 1.60E-08 M, triplicates): 102.085% and 102.001%
NanoBRET(%) (NanoLuc-CRBN fusion; 2.00E-06 M, triplicates): 49.8083% and 51.4483% and 59.2693%
NanoBRET(%) (NanoLuc-CRBN fusion; 3.20E-09 M, triplicates): 100.05% and 108.808% and 104.469%
NanoBRET(%) (NanoLuc-CRBN fusion; 4.00E-07 M, triplicates): 67.9857% and 66.2855% and 79.0983%
NanoBRET(%) (NanoLuc-CRBN fusion; 8.00E-08 M, triplicates): 74.8615% and 82.1247%
IC50 (NanoLuc-CRBN fusion; HEK-293 cells, CRBN tracer 0.5 µM, triplicates, read-out: CRBN target engagement IC50,TE): 1690 nM
K′P,D (relative intracellular accumulation coefficient) (NanoLuc-CRBN fusion; Kd (CRBN)/IC50,TE (CRBN)): 1.1
intracellular accumulation of RC-1 relative to the compound (NanoLuc-CRBN fusion; from K′P,D values, CRBN (Table 2)): 16 fold
CRBN target engagement IC50 relative to that of RC-1 (NanoLuc-CRBN fusion; ratio compound/RC-1): 7 fold
recovery at 16 h, 10 μM ([1]; Recovery%): 30%
Papp at 16 h, 10 μM ([1]; pH 7.4): < 0.00209 ×10⁻⁶ cm/s
Quantification anti-BTK / anti-β-actin (BTK level vs DMSO) (BTK; Figure 2b, 8 nM, duplicates): 97.1575 and 95.3789
Quantification anti-BTK / anti-β-actin (BTK level vs DMSO) (BTK; Figure 2b, 40 nM, duplicates): 69.0679 and 73.2452
Quantification anti-BTK / anti-β-actin (BTK level vs DMSO) (BTK; Figure 2b, 200 nM, duplicates): 33.5661 and 27.9942

CN1C(=O)CCC(N2C(=O)c3cccc(NCC(=O)NCCCN(C)C(C)(C)C=C(C#N)C(=O)N4CCCC(n5nc(-c6ccc(Oc7ccccc7)cc6)c6c(N)ncnc65)C4)c3C2=O)C1=O (stereo not shown) [RC-1-Me]
Quantification anti-BTK / anti-β-actin (BTK level vs DMSO) (BTK; Figure 2d, DMSO = 100 (mean)): 91.1107
BTK degradation (in words) (BTK; 200 nM): cannot degrade BTK in cells
IC50 (Rec-1): > 5000 nM
Cell Viability (%) (Rec-1; 1.25E-06 M): 88.9713% and 84.187% and 87.0708%
Cell Viability (%) (Rec-1; 1.56E-07 M): 102.885% and 100.999% and 103.498%
Cell Viability (%) (Rec-1; 2.50E-06 M): 85.2061% and 81.3451% and 80.2365%
Cell Viability (%) (Rec-1; 3.13E-07 M): 100.04% and 97.7301% and 97.0129%
Cell Viability (%) (Rec-1; 5.00E-06 M): 70.5812% and 67.1387% and 67.0221%
Cell Viability (%) (Rec-1; 6.25E-07 M): 91.8342% and 92.6769% and 91.2574%
Cell Viability (%) (Rec-1; 7.81E-08 M): 100.946% and 100.662% and 102.733%

CC(C)(C)C=C(C#N)C(=O)N1CCCC(n2nc(-c3ccc(Oc4ccccc4)cc3)c3c(N)ncnc32)C1 (stereo not shown) [RC-Ctrl]
Signal (full-length BTK protein; BTK_+DTT, compound concentration 0.00491 nM): 2.09E-05 and 2.12E-05
Signal (full-length BTK protein; BTK_+DTT, compound concentration 0.0147 nM): 2.23E-05 and 2.05E-05
Signal (full-length BTK protein; BTK_+DTT, compound concentration 0.0442 nM): 2.23E-05 and 2.20E-05
Signal (full-length BTK protein; BTK_+DTT, compound concentration 0.133 nM): 2.05E-05
Signal (full-length BTK protein; BTK_+DTT, compound concentration 0.398 nM): 2.13E-05 and 2.22E-05
Signal (full-length BTK protein; BTK_+DTT, compound concentration 1.19 nM): 1.80E-05 and 1.97E-05
Signal (full-length BTK protein; BTK_+DTT, compound concentration 3.58 nM): 1.78E-05 and 1.71E-05
Signal (full-length BTK protein; BTK_+DTT, compound concentration 10.7 nM): 1.50E-05 and 1.39E-05
Signal (full-length BTK protein; BTK_+DTT, compound concentration 32.2 nM): 7.62E-06 and 7.96E-06
Signal (full-length BTK protein; BTK_+DTT, compound concentration 96.7 nM): 2.20E-06 and 2.08E-06
Signal (full-length BTK protein; BTK_+DTT, compound concentration 290 nM): 4.82E-07 and 5.26E-07
Signal (full-length BTK protein; BTK_-DTT, compound concentration 0.0152 nM): 1.69E-05 and 1.12E-05
Signal (full-length BTK protein; BTK_-DTT, compound concentration 0.0457 nM): 1.66E-05 and 1.75E-05
Signal (full-length BTK protein; [2]): 1.87E-05 and 1.52E-05
Signal (full-length BTK protein; BTK_-DTT, compound concentration 0.412 nM): 1.34E-05 and 1.41E-05
Signal (full-length BTK protein; BTK_-DTT, compound concentration 1.23 nM): 1.48E-05 and 1.35E-05
Signal (full-length BTK protein; BTK_-DTT, compound concentration 3.7 nM): 1.31E-05 and 1.42E-05
Signal (full-length BTK protein; BTK_-DTT, compound concentration 11.1 nM): 6.46E-06 and 6.66E-06
Signal (full-length BTK protein; BTK_-DTT, compound concentration 33.3 nM): 2.78E-06 and 2.85E-06
Signal (full-length BTK protein; BTK_-DTT, compound concentration 100 nM): 8.37E-07 and 7.44E-07
Signal (full-length BTK protein; BTK_-DTT, compound concentration 300 nM): 2.56E-07 and 2.49E-07
Kd (full-length BTK protein; absence of DTT in the buffer): 9.1 nM
Quantification anti-BTK / anti-β-actin (BTK level vs DMSO) (BTK; Figure 2d, DMSO = 100 (mean)): 83.2734
BTK degradation (in words) (BTK; 200 nM): Neither RC-Ctrl, nor pomalidomide, nor a combination of both caused BTK degradation
BTK degradation (in words) (BTK; 200 nM, listed as RC-1 warhead): neither the RC-1 warhead, nor pomalidomide, nor a combination of both caused BTK degradation
IC50 (Rec-1): > 5000 nM
Cell Viability (%) (Rec-1; 1.25E-06 M): 84.1542% and 83.3085% and 82.8961%
Cell Viability (%) (Rec-1; 1.56E-07 M): 92.1928% and 91.3082% and 92.4737%
Cell Viability (%) (Rec-1; 2.50E-06 M): 79.0591% and 78.7184% and 77.0987%
Cell Viability (%) (Rec-1; 3.13E-07 M): 90.2055% and 91.6728% and 91.1737%
Cell Viability (%) (Rec-1; 5.00E-06 M): 67.2403% and 66.8996% and 66.3946%
Cell Viability (%) (Rec-1; 6.25E-07 M): 86.0757% and 86.1055% and 87.7342%
Cell Viability (%) (Rec-1; 7.81E-08 M): 88.6576% and 86.9542% and 93.923%
